Measurements as given in patent US7566712B2, “Biaryl piperazinyl-pyridine analogues” (Neurogen Corporation, priority 2003, dated 2009).
pIC50: −log10 of the molar value.

Molecular target: T1, human capsaicin receptor (Homo sapiens, UniProt Q8NER1)
T1 construct: pBK-CMV expression construct encoding the full length human capsaicin receptor; expressed in transfected cells
Experiment: Calcium mobilization assay, determination of antagonist activity (Example 6)
Type: cell-based
Conditions: Table II; IC50 determined as described in Example 6
In short: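 Antagonism measured as inhibition of capsaicin-evoked (final concentration = EC50, from an 8-point 1 nM–3 μM curve) Fluo-3 calcium signal in stable hVR1-HEK293 cells. Test compounds at 1–5 μM final, 0.5–6 h dark preincubation at room temperature. IC50 = concentration giving 50% reduction versus agonist-only response.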

T1 sequence (Q8NER1 whole entry): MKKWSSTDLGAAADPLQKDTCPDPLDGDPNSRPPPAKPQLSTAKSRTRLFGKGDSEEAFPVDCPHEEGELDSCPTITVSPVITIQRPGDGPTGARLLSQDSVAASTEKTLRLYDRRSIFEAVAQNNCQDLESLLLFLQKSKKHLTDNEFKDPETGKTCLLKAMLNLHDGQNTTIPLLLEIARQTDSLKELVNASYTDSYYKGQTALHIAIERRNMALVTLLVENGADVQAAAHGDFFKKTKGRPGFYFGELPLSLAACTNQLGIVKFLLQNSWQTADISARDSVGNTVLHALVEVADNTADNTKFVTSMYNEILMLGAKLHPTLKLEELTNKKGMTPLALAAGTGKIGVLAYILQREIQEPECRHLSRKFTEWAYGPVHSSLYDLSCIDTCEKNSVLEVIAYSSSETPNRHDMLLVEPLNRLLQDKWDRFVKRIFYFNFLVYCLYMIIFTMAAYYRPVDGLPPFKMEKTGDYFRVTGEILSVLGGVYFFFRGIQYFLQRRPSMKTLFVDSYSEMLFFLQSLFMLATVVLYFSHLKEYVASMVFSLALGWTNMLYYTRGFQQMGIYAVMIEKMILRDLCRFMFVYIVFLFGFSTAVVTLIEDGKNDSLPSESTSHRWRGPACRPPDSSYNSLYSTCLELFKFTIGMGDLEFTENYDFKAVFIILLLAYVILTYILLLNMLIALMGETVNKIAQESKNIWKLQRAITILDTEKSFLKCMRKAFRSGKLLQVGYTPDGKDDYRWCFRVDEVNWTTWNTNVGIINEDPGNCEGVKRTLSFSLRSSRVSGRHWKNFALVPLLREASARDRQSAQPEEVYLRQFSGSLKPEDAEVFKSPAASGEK

pIC50, ≥ 6.00:
C=CCN1CCN(c2nc(-c3ccccc3)nc(N3CCN(c4ncccc4C(F)(F)F)CC3)n2)CC1 [Example 440, 2-(4-allylpiperazin-1-yl)-4-phenyl-6-{4-[3-(trifluoromethyl)pyridin-2-yl]piperazin-1-yl}-1,3,5-triazine]
CCN(CC)C1CCN(c2nc(-c3ccc(F)c(Cl)c3)cc(N3CCN(c4ncccc4C(F)(F)F)CC3)n2)CC1 [Example 563, 1-(4-(3-chloro-4-fluorophenyl)-6-{4-[3-(trifluoromethyl)pyridin-2-yl]piperazin-1-yl}pyrimidin-2-yl)-N,N-diethylpiperidin-4-amine]
CCc1cccc(-c2cc(N3CCN(c4ncccc4C#N)C[C@H]3C)nc(N3CCOCC3)n2)c1 [Example 514, 2-{(3R)-4-[6-(3-ethylphenyl)-2-morpholin-4-ylpyrimidin-4-yl]-3-methylpiperazin-1-yl}nicotinonitrile]
C[C@@H]1CN(c2ncccc2Cl)CCN1c1cc(-c2ccccc2)nc(N2CCOCC2)n1 [Example 479, 4-{4-[(2R)-4-(3-chloropyridin-2-yl)-2-methylpiperazin-1-yl]-6-phenylpyrimidin-2-yl}morpholine]
Fc1ccc(-c2nc(N3CCOCC3)nc(N3CCN(c4ncccc4C(F)(F)F)CC3)n2)cc1Cl [Example 426, 2-(3-chioro-4-fluorophenyl)-4-morpholin-4-yl-6-{4-[3-(trifluoromethyl)pyridin-2-yl]piperazin-1-yl}-1,3,5-triazine]
CCOc1cccc(-c2cc(N3CCN(c4ncccc4C(F)(F)F)C[C@H]3C)nc(N3CCOCC3)n2)c1 [Example 530, 4-(4-(3-ethoxyphenyl)-6-{(2R)-2-methyl-4-[3-(trifluoromethyl)pyridin-2-yl]piperazin-1-yl}pyrimidin-2-yl)morpholine]
Fc1ccc(F)c(-c2nc(N3CCOCC3)nc(N3CCN(c4ccccn4)CC3)n2)c1 [Example 422, 2-(2,5-difluorophenyl)-4-morpholin-4-yl-6-(4-pyridin-2-ylpiperazin-1-yl)-1,3,5-triazine]
NC1CCN(c2nc(-c3ccc(F)c(Cl)c3)cc(N3CCN(c4ncccc4C(F)(F)F)CC3)n2)C1 (centres unmarked) [Example 568, 1-(4-(3-chloro-4-fluorophenyl)-6-{4-[3-(trifluoromethyl)pyridin-2-yl]piperazin-1-yl}pyrimidin-2-yl)pyrrolidin-3-amine]

Same assay, conditions: Table II; IC50 determined as described in Example 6 (antagonist activity, calcium mobilization)

pIC50, ≥ 6.00:
Cc1ccc(-c2cc(N3CCN(c4ncccc4Cl)C[C@H]3C)nc(N3CCCC3)n2)cc1Cl [Example 997, 4-(3-chloro-4-methylphenyl)-6-[(2R)-4-(3-chloropyridin-2-yl)-2-methylpiperazin-1-yl]-2-pyrrolidin-1-ylpyrimidine]

Same assay, conditions: Table II; determined as described in Example 6 (antagonist activity); "*" = 1 micromolar or less

pIC50, ≥ 6.00:
COc1ncc(Cl)c(N2CCN(c3cc(-c4ccc(F)cc4)nc(N4CCCC4)n3)[C@H](C)C2)n1 [Example 967, 5-chloro-4-{(3R)-4-[6-(4-fluorophenyl)-2-pyrrolidin-1-ylpyrimidin-4-yl]-3-methylpiperazin-1-yl}-2-methoxypyrimidine]
Cc1cc(C#N)cnc1N1CCN(c2cc(-c3ccc(F)cc3)nc(N3CCCC3C)n2)CC1 (centres unmarked) [Example 931, 6-{4-[6-(4-fluorophenyl)-2-(2-methylpyrrolidin-1-yl)pyrimidin-4-yl]piperazin-1-yl}-5-methylnicotinonitrile]
C[C@@H]1CN(c2ncccc2Cl)CCN1c1cc(-c2cccc(C#N)c2)nc(N2CCOCC2)n1 (stereo in doubt) [Example 870, 3-{6-[4-(3-chloropyridin-2-yl)-2-methylpiperazin-1-yl]-2-morpholin-4-ylpyrimidin-4-yl}benzonitrile]
C[C@@H]1CN(c2ncccc2Cl)CCN1c1cc(-c2ccc(F)cc2)nc(N2CCN3CCC[C@H]3C2)n1 [Example 890, (8aS)-2-[4-[(2R)-4-(3-chloropyridin-2-yl)-2-methylpiperazin-1-yl]-6-(4-fluorophenyl)pyrimidin-2-yl]octahydropyrrolo[1,2-a]pyrazine]
CC1CCCN1c1nc(-c2ccc3c(c2)CN(C)CC3(C)C)cc(N2CCN(c3ncccc3C(F)(F)F)CC2)n1 (centres unmarked) [Example 836, 2,4,4-trimethyl-7-(2-(2-methylpyrrolidin-1-yl)-6-{4-[3-(trifluoromethyl)pyridin-2-yl]piperazin-1-yl}pyrimidin-4-yl)-1,2,3,4-tetrahydroisoquinoline]
Cc1ccc(C)n1-c1nc(-c2ccc(C#N)cc2)cc(N2CCN(c3ncccc3C(F)(F)F)CC2)n1 [Example 876, 4-(2-(2,5-dimethyl-1H-pyrrol-1-yl)-6-{4-[3-(trifluoromethyl)pyridin-2-yl]piperazin-1-yl}pyrimidin-4-yl)benzonitrie]
C[C@@H]1CN(c2ncccc2C(F)(F)F)CCN1c1cc(-c2ccc(F)cc2)nc(N2CCCCC2)n1 [Example 784, 4-(4-fluorophenyl)-6-{(2R)-2-methyl-4-[3-(trifluoromethyl)pyridin-2-yl]piperazin-1-yl}-2-piperidin-1-ylpyrimidine]
C[C@@H]1CN(c2ncccc2C(F)(F)F)CCN1c1cc(-c2ccc(F)c(F)c2)nc(N2CCC[C@H]2C)n1 [Example 936, 4-(3,4-difluorophenyl)-2-[(2R)-2-methylpyrrolidin-1-yl]-6-{(2R)-2-methyl-4-[3-(trifluoromethyl)pyridin-2-yl]piperazin-1-yl}pyrimidine]
C[C@@H]1CN(c2ccncc2Cl)CCN1c1cc(-c2ccc(F)c(F)c2)nc(Cl)n1 [Example 826, 2-chloro-4-[(2R)-4-(3-chloropyridin-4-yl)-2-methylpiperazin-1-yl]-6-(3,4-difluorophenyl)pyrimidine]
COc1ccc(Cl)c(N2CCN(c3cc(-c4ccc(F)c(Cl)c4)nc(N4CCCC4C)n3)CC2)n1 (centres unmarked) [Example 918, 4-(3-chloro-4-fluorophenyl)-6-[4-(3-chloro-6-methoxypyridin-2-yl)piperazin-1-yl]-2-(2-methylpyrrolidin-1-yl)pyrimidine]
Cc1cc(-c2cc(N3CCN(c4ncccc4C(F)(F)F)C[C@H]3C)nc(N3CCC3(C)C)n2)ccc1F [Example 794, 2-(2,2-dimethylazetidin-1-yl)-4-(4-fluoro-3-methylphenyl)-6-{(2R)-2-methyl-4-[3-(trifluoromethyl)pyridin-2-yl]piperazin-1-yl}pyrimidine]
CC1(O)CN(c2nc(-c3ccc(F)c(Cl)c3)cc(N3CCN(c4ncccc4C(F)(F)F)CC3)n2)C1 [Example 778, 1-(4-(3-chloro-4-fluorophenyl)-6-{4-[3-(trifluoromethyl)pyridin-2-yl]piperazin-1-yl}pyrimidin-2-yl)-3-methylazetidin-3-oI]
Cc1cc(-c2cc(N3CCN(c4ncccc4C(F)(F)F)CC3)nc(-n3c(C)ccc3C)n2)ccc1F [Example 877, 2-(2,5-dimethyl-1H-pyrrol-1-yl)-4-(4-fluoro-3-methylphenyl)-6-{4-[3-(trifluoromethyl)pyridin-2-yl]piperazin-1-yl}pyrimidine]
C[C@@H]1CN(c2ncccc2Cl)CCN1c1cc(-c2ccc(F)c(Cl)c2)nc(Cl)n1 (stereo in doubt) [Example 827, 2-chloro-4-(3-chloro-4-fluorophenyl)-6-[4-(3-chloropyridin-2-yl)-2-methylpiperazin-1-yl]pyrimidine]

Same assay, conditions: determined as described in Example 6 (calcium mobilization, antagonist activity); Table II

pIC50, ≥ 6.00:
CS(=O)(=O)N1CCN(c2nc(-c3ccc(F)c(Cl)c3)cc(N3CCN(c4ncccc4C(F)(F)F)CC3)n2)CC1 [Example 572, 4-(3-chloro-4-fluorophenyl)-2-[4-(methylsulfonyl)piperazin-1-yl]-6-{4-[3-(trifluoromethyl)pyridin-2-yl]piperazin-1-yl)pyrimidine]
COc1cccnc1N1CCN(c2cc(-c3ccc(F)c(Cl)c3)nc(N3CCOCC3)n2)CC1 [Example 586, 4-{4-(3-chloro-4-fluorophenyl)-6-[4-(3-methoxypyridin-2-yl)piperazan-1-yl]pyrimidin-2-yl}morpholine]
CC1CCCN1c1nc(-c2ccc(F)c(Cl)c2)cc(N2CCN(c3ncccc3Cl)CC2)n1 (centres unmarked) [Example 714, 4-(3-chloro-4-fluorophenyl)-6-[4-(3-chloropyridin-2-yl)piperazin-1-yl]2-(2-methylpyrrolidin-1-yl)pyrimidine]
O=S(=O)(Cc1ccccc1)c1nc(-c2ccc(F)c(Cl)c2)cc(N2CCN(c3ncccc3C(F)(F)F)CC2)n1 [Example 650, 2-(benzylsulfonyl)-4-(3-chloro-4-fluorophenyl)-6-{4-[3-(trifluoromethyl)pyridin-2-yl]piperazin-1-yl}pyrimidine]
CC(=N)N1CCN(c2nc(-c3ccc(F)c(Cl)c3)cc(N3CCN(c4ncccc4C(F)(F)F)CC3)n2)CC1 [Example 663, 1-[4-(4-(3-chloro-4-fluorophenyl)-6-{4-[3-(trifluoromethyl)pyridin-2-yl]piperazin-1-yl}pyrimidin-2-yl)piperazin-1-yl]ethanimine]
CNc1nc(-c2ccc(F)c(Cl)c2)cc(N2CCN(c3ncccc3C(F)(F)F)CC2)n1 [Example 639, 4-(3-chloro-4-fluorophenyl)-N-methyl-6-{4-[3-(trifluoromethyl)pyridin-2-yl]piperazin-1-yl}pyrimidin-2-amine]
